Results published in ChEMBL document CHEMBL4043292, “Discovery and Optimization of Phosphopantetheine Adenylyltransferase Inhibitors with Gram-Negative Antibacterial Activity” (J Med Chem, 2018).
In brackets after ≈: the same amount, converted by molar mass.

What was measured:
[1] = system: Escherichia coli; test: microbe, parasite or virus in culture; details: JW5503-1, 20 h
Description: Antibacterial activity against tolC deficient Escherichia coli JW5503-1 after 20 hrs by broth microdilution method

[2] = system: Escherichia coli; test: microbe, parasite or virus in culture; details: BW25113, 20 h
Description: Antibacterial activity against Escherichia coli BW25113 after 20 hrs by broth microdilution method

[3] = physchem; details: buffer, pH 7.4
Description: Lipophilicity, log D of the compound at pH 7.4

[4] = physchem; details: PBS
Description: Solubility of the compound in PBS

[5] = Inhibition of PPAT in tolC deficient Escherichia coli JW5503-1 assessed as reduction in level of CoA-SH metabolite by mass spectrometric method
[6] = Inhibition of PPAT in Escherichia coli BW25113 assessed as reduction in level of CoA-SH metabolite by mass spectrometric method

Row | SMILES | MIC [1] | MIC [2] | logD [3] | solubility [4] | IC50 [5] | IC50 [6]
1 | Cc1cc(NC[C@@H](N)c2ccccn2)n2nc(N[C@H](CC#N)c3cccc(Cl)c3)nc2n1 | 2 µg/mL (≈ 4.46 µM) | > 128 µg/mL | 1.9 | – | – | –
2 | Cc1cc(N2CCN(C)CC2)n2nc(N[C@H](CC#N)c3cccc(Cl)c3)nc2n1 | 4 µg/mL (≈ 9.73 µM) | > 128 µg/mL | 2.4 | > 729 µg/mL | 97 nM | 41000 nM
3 | Cc1cc(NCCc2ccccc2)n2nc(N[C@H](C)c3cccc(Cl)c3)nc2n1 | 4 µg/mL (≈ 9.83 µM) | > 128 µg/mL | > 4.8 | – | – | –
4 | Cc1cc(Nc2ccc3nc(C)sc3c2)n2nc(N[C@H](C)c3cccc(Cl)c3)nc2n1 | 1 µg/mL (≈ 2.22 µM) | > 128 µg/mL | 4.4 | – | – | –
5 | COc1ccc(Oc2cccc([C@@H](C)Nc3nc4[nH]c(C)cc(=O)n4n3)c2)cc1 | 64 µg/mL (≈ 164 µM) | – | – | – | – | –
6 | CO/N=C/C1(Cc2cccc([C@@H](CC#N)Nc3nc4nc(C)ccc4[nH]3)c2)CCN(C(=O)OC)CC1 | 0.25 µg/mL (≈ 0.511 µM) | > 128 µg/mL | 3.5 | – | – | –
7 | Cc1cc(=O)n2nc(N[C@H](C)c3cccc(Cl)c3)nc2[nH]1 | > 128 µg/mL | – | – | – | – | –
8 | Cc1cc(NC[C@@H](O)c2ccccc2)n2nc(N[C@H](CC#N)c3cccc(Cl)c3)nc2n1 | 0.25 µg/mL (≈ 0.558 µM) | > 128 µg/mL | 3.6 | – | – | –
9 | Cc1cc(NC[C@@H](N)c2cccc(F)c2)n2nc(N[C@H](CC#N)c3cccc(Cl)c3)nc2n1 | 0.25 µg/mL (≈ 0.538 µM) | 64 µg/mL (≈ 138 µM) | 3.7 | – | – | –
10 | Cc1cc(NC[C@@H](N)c2ccsc2)n2nc(N[C@H](CC#N)c3cccc(Cl)c3)nc2n1 | 1 µg/mL (≈ 2.21 µM) | 64 µg/mL (≈ 141 µM) | 3 | – | – | –
11 | COC(=O)N1CCC(S(=O)(=O)c2cccc([C@@H](CC#N)Nc3nc4nc(C)ccc4[nH]3)c2)CC1 | 2 µg/mL (≈ 4.14 µM) | > 128 µg/mL | 1.9 | – | – | –
12 | Cc1cc(NC[C@@H](N)c2ccc(F)cc2)n2nc(N[C@H](CC#N)c3cccc(Cl)c3)nc2n1 | 0.5 µg/mL (≈ 1.08 µM) | 64 µg/mL (≈ 138 µM) | – | – | – | –
13 | Cc1cc(NC[C@@H](N)c2ccncc2)n2nc(N[C@H](CC#N)c3cccc(Cl)c3)nc2n1 | 4 µg/mL (≈ 8.93 µM) | > 128 µg/mL | 2.2 | – | – | –
14 | Cc1cc(NCCc2c(C)n[nH]c2C)n2nc(N[C@H](CC#N)c3cccc(Cl)c3)nc2n1 | 0.5 µg/mL (≈ 1.11 µM) | > 128 µg/mL | 3.8 | 23.8 µg/mL (≈ 52.9 µM) | 12 nM | 74000 nM
15 | COC(=O)N1CCC(CCC(=O)O)(Cc2cccc([C@@H](CC#N)Nc3nc4nc(C)ccc4[nH]3)c2)CC1 | 0.5 µg/mL (≈ 0.991 µM) | > 128 µg/mL | – | – | – | –
16 | Cc1cc(NCCc2c(C)n[nH]c2C)n2nc(N[C@H](C)c3cccc(Cl)c3)nc2n1 | 2 µg/mL (≈ 4.71 µM) | > 128 µg/mL | 2.9 | – | – | –
17 | COC(=O)N1CCN(S(=O)(=O)c2cccc([C@@H](CC#N)Nc3nc4nc(C)ccc4[nH]3)c2)CC1 | 32 µg/mL (≈ 66.2 µM) | > 128 µg/mL | 2 | – | – | –
18 | CC(=O)N1CCc2cc(Nc3cc(C)nc4nc(N[C@H](CC#N)c5cccc(Cl)c5)nn34)ccc21 | 0.06 µg/mL (≈ 0.123 µM) | > 128 µg/mL | 3.9 | < 0.6 µg/mL | < 6 nM | 2400 nM
19 | COC(=O)N1CC[C@H](Oc2cccc([C@@H](CC#N)Nc3nc4nc(C)ccc4[nH]3)c2)C1 | 4 µg/mL (≈ 9.51 µM) | > 128 µg/mL | 2.7 | – | – | –
20 | Cc1cc(NC[C@H](N)c2ccccc2)n2nc(N[C@H](CC#N)c3cccc(Cl)c3)nc2n1 | 8 µg/mL (≈ 17.9 µM) | > 128 µg/mL | 3.2 | – | – | –
21 | COC(=O)N1CCC(Oc2cccc([C@@H](CC#N)Nc3nc4[nH]c(C)cc(=O)n4n3)c2)CC1 | 8 µg/mL (≈ 17.7 µM) | > 128 µg/mL | 0.64 | – | 450 nM | > 200000 nM
22 | COC(=O)N1CC[C@@H](Cc2cccc([C@@H](CC#N)Nc3nc4nc(C)ccc4[nH]3)c2)C1 | 1 µg/mL (≈ 2.39 µM) | > 128 µg/mL | 3.1 | – | – | –
23 | Cc1cc(NC[C@@H](N)c2cccs2)n2nc(N[C@H](CC#N)c3cccc(Cl)c3)nc2n1 | 0.25 µg/mL (≈ 0.552 µM) | 64 µg/mL (≈ 141 µM) | 3.3 | – | – | –
24 | COC(=O)N1CCC(O)(Cc2cccc([C@@H](CC#N)Nc3nc4nc(C)ccc4[nH]3)c2)CC1 | 2 µg/mL (≈ 4.46 µM) | > 128 µg/mL | 2.1 | – | – | –

Row | SMILES | MIC [1] | MIC [2] | logD [3] | solubility [4] | IC50 [5] | IC50 [6]
25 | COC(=O)N1CCC(CCCO)(Cc2cccc([C@@H](CC#N)Nc3nc4nc(C)ccc4[nH]3)c2)CC1 | 0.25 µg/mL (≈ 0.51 µM) | > 128 µg/mL | – | – | – | –
26 | COC(=O)N1CC[C@@H](Oc2cccc([C@@H](CC#N)Nc3nc4nc(C)ccc4[nH]3)c2)C1 | > 128 µg/mL | > 128 µg/mL | 2.8 | – | – | –
27 | Cc1cc(N2CCN(C)CC2)n2nc(N[C@H](C)c3cccc(Cl)c3)nc2n1 | 32 µg/mL (≈ 82.9 µM) | > 128 µg/mL | 3.3 | – | – | –
28 | Cc1cc(NC[C@@H](N)c2c(C)noc2C)n2nc(N[C@H](CC#N)c3cccc(Cl)c3)nc2n1 | 1 µg/mL (≈ 2.15 µM) | > 128 µg/mL | – | – | – | –
29 | COC(=O)N1CCC(Cc2cccc([C@@H](CC#N)Nc3nc4nc(C)ccc4[nH]3)c2)(C(=O)O)CC1 | 16 µg/mL (≈ 33.6 µM) | > 128 µg/mL | 0.02 | – | – | –
30 | COC(=O)N1CCC(CNCCO)(Cc2cccc([C@@H](CC#N)Nc3nc4nc(C)ccc4[nH]3)c2)CC1 | 32 µg/mL (≈ 63.3 µM) | > 128 µg/mL | – | – | – | –
31 | Cc1cc(NC[C@@H](N)c2ccccc2)n2nc(N[C@H](CC#N)c3cccc(Cl)c3)nc2n1 | 0.25 µg/mL (≈ 0.559 µM) | 32 µg/mL (≈ 71.6 µM) | 3.4 | – | – | –
32 | Cc1cc(NC[C@@H](N)c2cccnc2)n2nc(N[C@H](CC#N)c3cccc(Cl)c3)nc2n1 | 4 µg/mL (≈ 8.93 µM) | > 128 µg/mL | 2.3 | – | – | –
33 | Cc1cc(=O)n2nc(N[C@H](CC#N)c3cccc(Cl)c3)nc2[nH]1 | 16 µg/mL (≈ 48.7 µM) | > 128 µg/mL | – | – | 590 nM | > 200000 nM
34 | COC(=O)N1CCN(Cc2cccc([C@@H](CC#N)Nc3nc4nc(C)ccc4[nH]3)c2)C(=O)C1 | – | – | 1.4 | – | – | –
35 | Cc1cc(N[C@H]2C[C@@H]2c2ccccc2)n2nc(N[C@H](C)c3cccc(Cl)c3)nc2n1 | 2 µg/mL (≈ 4.77 µM) | > 128 µg/mL | 4.9 | – | – | –
36 | Cc1cc(NC[C@@H](N)C2CC2)n2nc(N[C@H](CC#N)c3cccc(Cl)c3)nc2n1 | 8 µg/mL (≈ 19.5 µM) | > 128 µg/mL | 1.3 | – | – | –
37 | COC(=O)N1CCC(CO)(Cc2cccc([C@@H](CC#N)Nc3nc4nc(C)ccc4[nH]3)c2)CC1 | 1 µg/mL (≈ 2.16 µM) | > 128 µg/mL | – | – | – | –
38 | Cc1cc(NC[C@@H](N)c2nccn2C)n2nc(N[C@H](CC#N)c3cccc(Cl)c3)nc2n1 | 4 µg/mL (≈ 8.87 µM) | > 128 µg/mL | – | – | – | –
39 | Cc1cc(Nc2ccc(C)c(Cl)c2)n2nc(Cc3ccccc3)nc2n1 | – | – | > 5 | – | – | –
40 | Cc1cc(N2CC(N(C)C)C2)n2nc(N[C@H](CC#N)c3cccc(Cl)c3)nc2n1 | 4 µg/mL (≈ 9.73 µM) | > 128 µg/mL | 2.8 | – | – | –
41 | COC(=O)N1CCC(Sc2cccc([C@@H](CC#N)Nc3nc4nc(C)ccc4[nH]3)c2)CC1 | 0.06 µg/mL (≈ 0.133 µM) | 64 µg/mL (≈ 142 µM) | 3.7 | – | – | –
42 | CC(=O)N1CCc2cc(Nc3cc(C)nc4nc(N[C@H](C)c5cccc(Cl)c5)nn34)ccc21 | 0.125 µg/mL (≈ 0.271 µM) | > 128 µg/mL | 4.6 | – | – | –
43 | COC(=O)c1ccc(Oc2cccc([C@@H](CC#N)Nc3nc4[nH]c(C)cc(=O)n4n3)c2)cc1 | 2 µg/mL (≈ 4.5 µM) | – | 2 | – | – | –
44 | Cc1cc(NC[C@@H](N)c2ccccc2F)n2nc(N[C@H](CC#N)c3cccc(Cl)c3)nc2n1 | 0.125 µg/mL (≈ 0.269 µM) | 64 µg/mL (≈ 138 µM) | 3.2 | – | – | –
45 | COC(=O)N1CCC(CCC#N)(Cc2cccc([C@@H](CC#N)Nc3nc4nc(C)ccc4[nH]3)c2)CC1 | 0.5 µg/mL (≈ 1.03 µM) | > 128 µg/mL | – | – | – | –
46 | COC(=O)N1CC[C@H](Cc2cccc([C@@H](CC#N)Nc3nc4nc(C)ccc4[nH]3)c2)C1 | 0.125 µg/mL (≈ 0.299 µM) | 64 µg/mL (≈ 153 µM) | – | – | – | –
47 | Cc1cc(N2CC(N(C)C)C2)n2nc(N[C@H](C)c3cccc(Cl)c3)nc2n1 | > 128 µg/mL | > 128 µg/mL | – | – | – | –
